# Measurements reported in patent US20110152379A1, “COMPOSITION FOR CONTROL OF AGING AND/OR EXTENSION OF LIFE, CONTAINING DAPSONE AS ACTIVE INGREDIENT” (priority 2008, published 2011).
# Experiments:
# [1] = tested on: membrane potential of mitochondria; assay: Membrane potential of mitochondria, DiOC6 assay; format: cell-based, human
# Experimental: The protein amount of mitochondria constituent complex was measured by using Western Blot using Complex I (20 kDa ND6 subunit), Complex II (30 kDa FeS, non-heme iron protein, SDHB), Complex III (47 kDa core protein 2), Complex IV (18 kDa subunit IV), Complex V (55 kDa subunit a ATP synthase), and the like. […] The membrane potential (Δψm) of mitochondria used DiOC6. […] Since then, the above fibroblast was treated with 40 nM of DiOC6 for 15 minutes. The results were measured by using Cary Eclipse Fluorescence Spectrophotometer (Varian, Calif., USA) and the excitation wavelength and emission wavelength were measured at 480 nm and 520 nm, respectively.
# The change of membrane potential (Δψm) of mitochondria was measured by using a cationic dye, DiOC6 that is a specific fluorescent material for mitochondria. An aspect of the change was measured by using Fluorescence Spectrophotometer. The cell was cultured in 40 nM DiQC6 for 15 minutes and then the fluorescent material that was left was removed by using PBS. The analysis was performed by using Cary Eclipse fluorescence spectrophotometer (Varian, Calif., USA), and then the excitation wavelength was measured at 480 nm, and the emission wavelength was measured at 520 nm.
# [2] = tested on: cytosolic superoxide anion; assay: Superoxide anion in cell (cytoplasm), DHE; format: cell-based; details: human diploid fibroblast; 1 mM PQ 30 minutes; FIG. 24A
# Experimental: (§1) The cell was treated with 1 mM of PQ for 30 minutes, and then was cultured at 37° C. for 15 minutes after adding oxidant-sensitive fluorescent dyes (A) DHE (5 uM, cytosol specific) and (B) MitoSOX (5 uM, mitochondria specific), respectively. For identifying the change of fluorescence, the excitation and emission wavelength of DHE were measured at 515 and 590 nm and MitoSOX was measured at 520 and 580 nm by using a multiwell plate reader. The results were indicated by calculating the results of three experiments as a control rate (%). The statistical significant was expressed as *, # p<0.005; ** p<0.05.
# The cell was twice washed with DPBS and Ethidium-DNA that fluoresces was immediately measured at excitation wavelength 515 nm and emission wavelength 590 nm by using Cary Eclipse fluorescence spectrophotometer (Varian, Calif., USA) machine.
# mitochondria = assay: Mitochondria structure staining with MitoTracker Red; format: cell-based, human; details: pretreated with DDS or DPI, then 1 mM PQ 24 hours; FIG. 30
# Experimental: The first photograph indicates the stained mitochondria of the non-treated human diploid fibroblast as a control, the second photograph indicates the stained mitochondria of the PQ-treated human diploid fibroblast, the third photograph indicates the stained mitochondria of the human diploid fibroblast that was pretreated with DDS and then was treated with PQ, and the final photograph indicates the stained mitochondria of the human diploid fibroblast that was treated with DPI and PQ together (by using Confocal process). The values of (A, B, C and D: ×4000) is means±SEM (n=3), # is p<0.005 relative CC; and * is p<0.005 relative C.
# The human diploid fibroblasts were cultured at 24-well plate. After the above experiment materials, i.e., the human diploid fibroblasts, were pretreated and then were treated with PQ for 24 hours, the above cells were treated with MitoTracker Red CMXRos (50 nM), which is a staining material for mitochondria, at 37° C. for 30 minutes. The dye is a marker of function for marking mitochondria through marking a transmembrane potential of mitochondria in a cell. After culturing, the cells were washed with PBS and then fixed with 4% of paraformaldehyde at 4° C. for overnight. […] After washing, the cells were covered with a cover glass and visualized through a fluorescence microscope.
# [3] = tested on: mitochondria superoxide anion; assay: Superoxide anion in mitochondria, MitoSOX Red; format: cell-based; details: human diploid fibroblast; 1 mM PQ 30 minutes; FIG. 24B
# Experimental: as §1
# Mitochondria superoxide anion was measured by using the fluorescence material, i.e., MitoSOX Red. […] The cell was twice washed with DPBS and the fluorescence was immediately measured at excitation wavelength 515 nm and emission wavelength 590 nm by using CEFS [Cary Eclipse fluorescence spectrophotometer (Varian, Calif., USA)] machine.
# Escherichia coli OP50 = assay: Growth of OP50 bacteria with PABA and DDS; format: cell-based; details: PABA 10 uM added with DDS; FIG. 1
# Experimental: FIG. 1 is a graph showing the growth degree of bacteria by treating with PABA. […] In order to identify the effect of dapsone on the extending of lifespan, the experiment was performed in the following order. At this time, since dapsone is not a water-soluble material, E. coli was cultured in the medium including dapsone and then was used as a feed for C. elegans. […] The administration of dapsone was started after L4 stage that almost finishes the generation, and the experiment was performed as follows under the condition of 20° C. in order to provide the optimal growth environment: […]
# human diploid fibroblast = assay: Survival rate of human diploid fibroblast treated with PQ (CCK-8); details: 1 mM PQ for 48 hours without any pretreatments
# Experimental: The above cell was cultured by adding Cell Counting Kit-8 for 48 hours and then the survival ability of cell was measured. In addition, DPI (5 uM) was pretreated for 30 minutes and NAC (2 mM) was pretreated for 3 hours, and then 1 mM of PQ was treated as a positive control.
# The evaluation of survival rate of cell was performed by using Counting Kit (CCK-8) from Dojindo Laboratory Company (Japan). The human diploid fibroblast was cultured at 96-well plate for 24 hours before treating. […] The absorbance was measured at 450 nm.
# [4] = DPPH radical scavenging activity in cell-free system; format: biochemical; details: 0.1-100 uM; 200 uM DPPH; FIG. 25A
# Experimental: The radical scavenging activity was measured as the reducing power of
# DPPH included in methanol. […] DPPH is a stable free radical, has a thick purple color, and its absorbance is at 517 nm. However, if it reacts with an antioxidant, it has a pale yellow color. The reaction mixture was maintained for 30 minutes at a room temperature without light and then the absorbance was measured at 517 nm. The free radical scavenging activity was calculated as the suppression rate by using the following equation:
# % suppression=[(Absorbance of Control−Absorbance of Sample)/Control Absorbance]×100.
smiles,measurement,setting,value
c1ccc2c(c1)[I+]c1ccccc1-2 [DPI],decrease of membrane potential induced by PQ,"[1]; pretreated with DDS (3 hours) or DPI (30 minutes), then 1 mM PQ 24 hours, FIG. 29B",meaningfully maintained
same,superoxide anion of cytoplasm produced by PQ (DHE assay),[2],suppressed
same,shape of mitochondria after PQ (MitoTracker),mitochondria,"recovered, partially"
same,production of superoxide anion in the mitochondria,[3],suppress
"CC(=O)N[C@@H](CS)C(=O)O [NAC, N-acetyl-L-cystein]",superoxide anion of cytoplasm produced by PQ (DHE assay),[2],suppressed
same,production of superoxide anion in the mitochondria,[3],suppress
"Nc1ccc(C(=O)O)cc1 [PABA, para-aminobenzoic acid]",growth rate of bacteria relative to control,Escherichia coli OP50,80%
"C[n+]1ccc(-c2cc[n+](C)cc2)cc1 [PQ, paraquat]",membrane potential of mitochondria compared with the control,"[1]; human diploid fibroblast, 1 mM PQ for 24 hours",76.8%
same,viability of human diploid fibroblast compared with the non-treated control,human diploid fibroblast,about 58.8%
Cc1c(C)c2c(c(C)c1O)CCC(C)(C(=O)O)O2 (stereo not shown) [Trolox],activity of removing ROS on DPPH in the test tube,[4],strong activity of removing ROS
